Results taken from BindingDB's records for doi:10.7270/Q2513WMG (The Scripps Research Institute Molecular Screening Center, 2009).

These compounds were tested against Transitional endoplasmic reticulum ATPase (Homo sapiens, UniProt P55072, C522A) (assay: C522A mutant p97 ATPase inhibitors, dose response, counter-screen for p97 inhibitor project, biochemical, luminescence (AID 1544)).
Transitional endoplasmic reticulum ATPase, sequence (P55072 2-806 C522A limits assumed): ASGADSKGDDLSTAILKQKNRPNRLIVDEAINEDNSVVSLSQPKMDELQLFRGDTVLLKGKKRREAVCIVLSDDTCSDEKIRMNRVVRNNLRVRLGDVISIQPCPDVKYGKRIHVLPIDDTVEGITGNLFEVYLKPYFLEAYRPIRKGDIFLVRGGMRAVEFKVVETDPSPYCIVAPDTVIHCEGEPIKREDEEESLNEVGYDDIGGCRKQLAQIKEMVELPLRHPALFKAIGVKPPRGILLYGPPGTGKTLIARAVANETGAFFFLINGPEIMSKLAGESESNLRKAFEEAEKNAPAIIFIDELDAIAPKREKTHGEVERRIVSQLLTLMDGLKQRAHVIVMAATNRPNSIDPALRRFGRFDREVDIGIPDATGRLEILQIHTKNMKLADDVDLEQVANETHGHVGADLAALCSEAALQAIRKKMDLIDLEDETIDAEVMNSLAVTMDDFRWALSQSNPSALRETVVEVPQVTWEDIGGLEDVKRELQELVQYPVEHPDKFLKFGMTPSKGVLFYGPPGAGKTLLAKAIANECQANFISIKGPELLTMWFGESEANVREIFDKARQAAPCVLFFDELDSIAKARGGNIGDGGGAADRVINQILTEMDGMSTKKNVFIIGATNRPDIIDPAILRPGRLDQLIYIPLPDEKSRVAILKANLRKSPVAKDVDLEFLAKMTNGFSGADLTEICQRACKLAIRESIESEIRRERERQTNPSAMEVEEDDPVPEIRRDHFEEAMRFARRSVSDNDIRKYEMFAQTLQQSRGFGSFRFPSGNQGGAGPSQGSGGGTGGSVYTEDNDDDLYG

| SMILES | IC50 [µM] |
| --- | --- |
| NS(=O)(=O)c1ccc(N=NCc2ccc(O)c(O)c2O)c([N+](=O)[O-])c1 [4-[[(E)-(2,3-dihydroxy-4-oxo-1-cyclohexa-2,5-dienylidene)methyl]hydrazo]-3-nitrobenzenesulfonamide] | > 50 |
| On1[o+]nc2c1CCc1nc(-c3ccccc3)[n-]c1-2 [3-oxidanidyl-7-phenyl-4,5-dihydro-1H-imidazo[4,5-g][2,1,3]benzoxadiazol-3-ium] | > 50 |
| CN(C)[C@@H]1C(=O)C(C(N)=O)C(=O)[C@@]2(O)C(=O)C3C(=O)c4c(O)cccc4[C@@](C)(O)[C@H]3[C@H](O)[C@@H]12 (stereo partly drawn) [(2E,4S,4aR,5S,5aR,6S,12aS)-2-[azanyl(oxidanyl)methylidene]-4-(dimethylamino)-6-methyl-5,6,10,11,12a-pentakis(oxidanyl)-4,4a,5,5a-tetrahydrotetracene-1,3,12-trione] | > 50 |
| Cc1ccc(SCC(=O)C(C#N)c2nc3ccccc3s2)cc1 (configuration not stated) [(2Z)-2-(3H-1,3-benzothiazol-2-ylidene)-3-keto-4-(p-tolylthio)butyronitrile] | > 50 |
| Oc1ccc(CN=Nc2ccnc3cc(Cl)ccc23)cc1O [(4Z)-4-[[2-(7-chloroquinolin-4-yl)hydrazinyl]methylidene]-2-hydroxycyclohexa-2,5-dien-1-one] | > 50 |
| COc1ccc(CN=Nc2nnc(-c3ccccc3)c(=O)[nH]2)cc1 [4-methoxybenzaldehyde (5-oxo-6-phenyl-4,5-dihydro-1,2,4-triazin-3-yl)hydrazone] | > 50 |
| Cc1ccc(C)c(SCC(=O)OCC(=O)C(C#N)c2nc3ccccc3[nH]2)c1 (configuration not stated) [MLS000392255] | > 50 |
